Results taken from ChEMBL document CHEMBL1201862, “PubChem BioAssay data set” (2004).
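All cell lines were grown in 96-well plates and treated with compound for 48 hours. At the GI50, growth is halved.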 The source made the active and inactive calls. No stated cut-off is given here; in the data, active = GI50 up to about 1.1 µM and inactive = higher.

Tests used:
Assay in all cases: NCI anticancer screen, dose series, 48 h
NCI-H23 = tested on: NCI-H23
NCI-H522 = tested on: NCI-H522
SNB-19 = tested on: SNB-19
MDA-MB-231 = tested on: MDA-MB-231
UACC-62 = tested on: UACC-62
OVCAR-4 = tested on: OVCAR-4
786-0 = tested on: 786-0
LOX IMVI = tested on: LOX IMVI
UO-31 = tested on: UO-31
TK-10 = tested on: TK-10
SN12C = tested on: SN12C
DU-145 = tested on: DU-145
OVCAR-3 = tested on: OVCAR-3
A549 = tested on: A549
Malme-3M = tested on: Malme-3M
T47D = tested on: T47D
BT-549 = tested on: BT-549
SK-MEL-28 = tested on: SK-MEL-28
MDA-N = tested on: MDA-N
SW-620 = tested on: SW-620
K562 = tested on: K562
CAKI-1 = tested on: CAKI-1
SR = tested on: SR
SF-268 = tested on: SF-268
MDA-MB-435 = tested on: MDA-MB-435
HL-60 = tested on: HL-60
PC-3 = tested on: PC-3
NCI-H226 = tested on: NCI-H226
SK-MEL-2 = tested on: SK-MEL-2
SNB-75 = tested on: SNB-75
EKVX = tested on: EKVX
U-251 = tested on: U-251
MOLT-4 = tested on: MOLT-4
HOP-62 = tested on: HOP-62
RXF 393 = tested on: RXF 393
OVCAR-5 = tested on: OVCAR-5
HCT-15 = tested on: HCT-15
HT-29 = tested on: HT-29
ACHN = tested on: ACHN
NCI/ADR-RES = tested on: NCI/ADR-RES
HOP-92 = tested on: HOP-92
UACC-257 = tested on: UACC-257
A498 = tested on: A498
SK-MEL-5 = tested on: SK-MEL-5
SF-295 = tested on: SF-295
HCT-116 = tested on: HCT-116
NCI-H460 = tested on: NCI-H460
IGROV-1 = tested on: IGROV-1
M14 = tested on: M14
OVCAR-8 = tested on: OVCAR-8

COC(=O)c1cc(O)nc(O)n1
GI50 (NCI-H23): > 100 µM (inactive)
GI50 (NCI-H522): > 100 µM (inactive)
GI50 (SNB-19): > 100 µM (inactive)
GI50 (MDA-MB-231): > 100 µM (inactive)
GI50 (UACC-62): > 100 µM (inactive)
GI50 (OVCAR-4): > 100 µM (inactive)
GI50 (786-0): > 100 µM (inactive)
GI50 (LOX IMVI): > 100 µM (inactive)
GI50 (UO-31): > 100 µM (inactive)
GI50 (TK-10): > 100 µM (inactive)
GI50 (SN12C): > 100 µM (inactive)
GI50 (DU-145): > 100 µM (inactive)
GI50 (OVCAR-3): > 100 µM (inactive)
GI50 (A549): > 100 µM (inactive)
GI50 (Malme-3M): > 100 µM (inactive)
GI50 (T47D): > 100 µM (inactive)
GI50 (BT-549): > 100 µM (inactive)
GI50 (SK-MEL-28): > 100 µM (inactive)
GI50 (MDA-N): > 100 µM (inactive)
GI50 (SW-620): > 100 µM (inactive)
GI50 (K562): > 100 µM (inactive)
GI50 (CAKI-1): > 100 µM (inactive)
GI50 (SR): > 100 µM (inactive)
GI50 (SF-268): > 100 µM (inactive)
GI50 (MDA-MB-435): > 100 µM (inactive)
GI50 (HL-60): > 100 µM (inactive)
GI50 (PC-3): > 100 µM (inactive)
GI50 (NCI-H226): > 100 µM (inactive)
GI50 (SK-MEL-2): > 100 µM (inactive)
GI50 (SNB-75): > 100 µM (inactive)
GI50 (EKVX): > 100 µM (inactive)
GI50 (U-251): > 100 µM (inactive)
GI50 (MOLT-4): > 100 µM (inactive)
GI50 (HOP-62): > 100 µM (inactive)
GI50 (RXF 393): > 100 µM (inactive)
GI50 (OVCAR-5): > 100 µM (inactive)
GI50 (HCT-15): > 100 µM
GI50 (HT-29): > 100 µM (inactive)
GI50 (ACHN): > 100 µM (inactive)
GI50 (NCI/ADR-RES): > 100 µM (inactive)
GI50 (HOP-92): > 100 µM (inactive)
GI50 (UACC-257): > 100 µM (inactive)
GI50 (A498): > 100 µM (inactive)
GI50 (SK-MEL-5): > 100 µM (inactive)
GI50 (SF-295): > 100 µM (inactive)
GI50 (HCT-116): > 100 µM (inactive)
GI50 (NCI-H460): > 100 µM (inactive)
GI50 (IGROV-1): > 100 µM (inactive)
GI50 (M14): > 100 µM (inactive)
GI50 (OVCAR-8): > 100 µM (inactive)
